Results: patent US20250255829A1, “Multifunctional Nanoparticles and Uses in Managing Cancer and Cardiovascular Diseases” (Emory University, priority 2022, published 2025)
pIC50: −log10 of the molar value.

Assays:
[1] = system: atherosclerotic plaques; assay: Atherosclerotic plaque quantification from H&E stained aorta sections; assay type: in vivo, Apoe−/− mice; conditions: for volumes of atherosclerotic plaques: 5 mg/kg study
Method: Apoe−/−mice bearing dual diseases received the treatment. After surgical resection of the primary tumors, tumor recurrence and mouse survival were monitored. Mice with tumor recurrence and reached the endpoint were sacrificed. Aorta tissues of the mice were collected at the time point. Serial frozen tissue sections were cut throughout the tissue blocks and stained with H&E. Size of plaques in all arteries of each of the H&E stained tissue sections were measured and total size of the plaques from eight tissue sections of each mouse was compared with the mean of the total plaque area of the no treatment control (100%). For PD1Y-HANP/Ava group that sacrificed at 120 days, an additional no treatment group that was time equivalent was used as a control for the progression of atherosclerosis.
Apoe−/−mice bearing subcutaneous mouse colon tumors were treated with different reagents every 3-4 days for three treatments. Three days following the last treatment, all mice were sacrificed, and aorta arteries were collected. Plaque volumes were quantified from serial H&E tissue sections. During 12 days of treatment, PD1Y-HANP/Avasimibe treated mice had 56% reduction of the total plaque volume in the dual disease mouse model.
Following treatments and by the end of the survival study, the aorta tissues were collected.
In order to enhance the therapeutic effect a combination of PD-L1 targeted delivery of HANP/Avasimibe was tested with uPAR targeted delivery of SN38 (7-Ethyl-10-hydroxycamptothecin), which is an active metabolite of irinotecan that is commonly used for the treatment of colon cancer. […] The effect of ATFmmp14-HANP/SN38 alone or in combination with PD1Y-HANP/Avasimibe at 5 mg/kg of Avasimibe and PD1Y peptide dose/injection was examined in a dual mouse colon cancer and atherosclerosis model. […] Significant reductions of the volumes of atherosclerotic plaques in all treatment groups were detected.

[2] = system: s.c. mouse colon tumors (MC38); assay: Tumor growth in dual colon cancer and atherosclerosis mouse model; assay type: in vivo, Apoe−/− mice; conditions: dual disease model
Method: Apoe^−/− mice on a high fat diet carrying s.c. mouse colon tumors (a dual disease model) received five i.v. treatments, once every three days, of 10 mg/kg of avasimibe or equivalent PD1Y-HANP/avasimibe, 10 mg/kg of PD1Y peptide equivalent of PD1Y-HANP or PD1Y. Residual tumors were surgically resected 6 days by surgery after the last therapy. Tumors were weighted.
Apoe−/−mice bearing s.c. MC38 tumors received i.v. treatments of 5 mg/kg of Avasimibe, 5 mg/kg of PD1Y peptide, or […] of SN38 equivalent dose of free drugs or nanoparticle drugs.
MC38 tumor specific IgG antibodies were detected in the mouse serum following PD1Y-HANP/Avasimibe treatment. […]
Apoe^−/− (Apo E gene knock-out) mouse is a commonly used mouse model for atherosclerosis. […] Histological analysis of H&E stained tissue sections using NIR fluorescence microscopy (Keyence) confirmed HANP signals in the plaques. […]
In order to enhance the therapeutic effect a combination of PD-L1 targeted delivery of HANP/Avasimibe was tested with uPAR targeted delivery of SN38 (7-Ethyl-10-hydroxycamptothecin), which is an active metabolite of irinotecan that is commonly used for the treatment of colon cancer. […] Significant reductions of the volumes of atherosclerotic plaques in all treatment groups were detected.

[3] = system: MC38 mouse colon cancer cells; assay: Cell proliferation assay; assay type: cell-based; conditions: MC-38, read-out: IC50, inhibition of tumor cell proliferation
Description: Hydrophobic 5β-cholanic acid was conjugated to HA (HACA) to promote self-assembly and assist in loading of hydrophobic drug molecule avasimibe (Ava). HANP/Ava is produced by self-assembling of HACA and avasimibe using a high-pressure homogenizer. Amount of encapsulated avasimibe could reach to 20% (w/w) in HANP/Ava. PD1Y-HANP/Ava was produced by conjugating chemically synthesized PD1Y peptides, mediated by cysteine of PD1Y and maleimide of a short-PEG (12×) linker (FIG. 1B). A ratio of PD1Y to HANP at 17:1 was used. If a high concentration of PD1Y peptides will be needed for improvement of immune checkpoint inhibition, the amount of PD1Y peptides could be further increased up to 200 peptides per HANP.

[4] = Targeted delivery by NIR optical imaging and NIR fluorescence microscopy; assay type: in vivo, Apoe−/− mice; conditions: systemic (i.v.) delivery, 48 hrs
Method: Apoe^−/− (Apo E gene knock-out) mouse is a commonly used mouse model for atherosclerosis. […] Apoe^−/− mice developed s.c. tumors within 2-3 weeks and extensive atherosclerosis were found in the aortas, especially in the aorta arching. Targeted delivery of PD1Y-HANPs into tumors and atherosclerotic plaques is mediated by targeting PD-L1 (PD1Y) and CD44 (HANP) expressed in both tissues. To determine efficiency of targeted delivery, NIR 830 dye labeled-PD1Y-HANPs were injected i.v. into Apoe^−/− mice bearing mouse colon tumors. […] Histological analysis of H&E stained tissue sections using NIR fluorescence microscopy (Keyence) confirmed HANP signals in the plaques. PD1Y-HANPs were found as clusters in the stromal and tumor areas, with a higher level in necrotic tumor regions.
(§1) A uPAR targeted stroma-penetrating ligand (ATFmmp14) was developed containing the amino terminal fragment of uPA fused with the catalytic domain of MMP14. […] ATFmmp14 targets to tumor stromal fibroblasts and macrophages and MMP14 digests extracellular matrixes. […] Without PD1Y or ATFmmp14 conjugation, lower levels of HANP/Avasimibe were present in tumors and atherosclerotic plaques. Thus, uPAR targeted ATF or ATFmmp14 conjugated PD1Y-HANP/Avasimibe enhances delivery efficiency in both plaques and tumors in dual disease mouse model or PDX model.

[5] = Intratumoral delivery in colon PDX tumors; assay type: in vivo; conditions: colon PDX tumors in NSG mice
Description: as §1

CCc1c2c(nc3ccc(O)cc13)-c1cc3c(c(=O)n1C2)COC(=O)[C@]3(O)CC [SN38, 7-Ethyl-10-hydroxycamptothecin]
volumes of atherosclerotic plaques [1]: decreased

NWNRLSPSNQTEKQAAPHHHHCGAISLHPKAKIEE [Unconjugated PD1Y peptide]
therapeutic efficacy [2]: did not show therapeutic efficacy

CC(C)c1cc(C(C)C)c(CC(=O)NS(=O)(=O)Oc2c(C(C)C)cccc2C(C)C)c(C(C)C)c1 [avasimibe]
pIC50 [3]: 4.55
volumes of atherosclerotic plaques [1]: decreased
amount of the plaques (in words) ([1]; following treatments and by the end of the survival study): significantly decreased

ATFmmp14: amino terminal fragment of uPA fused with the catalytic domain of MMP14; uPAR targeted stroma-penetrating ligand
delivery into tumors and atherosclerotic plaques [4]: high delivery efficiency
intratumoral delivery [5]: high level of intratumoral delivery
